In the supplement of paper PMC11208160:

Assay: recombinant UMI read abundance after kanamycin selection (control-corrected) (log10(CPM+1)); higher = more efficient recombination; extreme values may be limits of the assay; sequences stand for … in AGTGCAGAGAAAATCGGCCAGTTTTCTCTGCCTGCAGTCCGCATGCCGTGGGACCCCTTGGGTTCTAACCTGTTGCCTAGATTTATGCAGCGGACTGCCTTTCTCCCAAAGTGATAAACCGG…AGGTTGGTTTCACT; site = the 11-nt donor
Procedure, shortened: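 The measure is log10(CPM+1) for recombinant UMIs. These were PCR-amplified across the donor–target junction and sequenced after Escherichia coli carrying a donor and donor-binding-loop pair library and a target plasmid with T7-inducible IS621 bridge recombinase was plated on IPTG (0.07 mM) plus kanamycin or unselected. CPM were averaged over two replicates and scaled by control-derived factors.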
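Also: IS621 bridge recombinase in Escherichia coli cells against a fixed T5 target plasmid.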

First: GTTGGAACATGGACCGGTTTTCCCGGTAATCCGTATTTGCC (site GTTGGAACTGG)
Second: GTTGGAACATGGACCGGTTTTCCCGGTAATCCGTATTTGTT (site GTTGGAACTAA)
The “recombinant UMI read abundance (log10)” value of the first is higher: 2.34 for the first, 2 for the second.

Going from “GTTGGTACATGGACCGGTTTTCCCGGTAATCCGTATTTGAC (site GTAGGTACTGT)” to “GTTGGTACATGGACCGGTTTTCCCGGTAATCCGTATTTGAC (site GTCGGTACTGT)”, the “recombinant UMI read abundance (log10)” value rises from 1.9 to 2.31.

Going from “GTTGGTACATGGACCGGTTTTCCCGGTAATCCGTATTTGAC (site GTGGGTACTGT)” to “GTTGGTACATGGACCGGTTTTCCCGGTAATCCGTATTTGAC (site GTTGGTACTGT)”, the “recombinant UMI read abundance (log10)” value rises from 0 to 2.36.

Going from “GTTGTTACATGGACCGGTTTTCCCGGTAATCCGTATTTGCA (site GTTGTTACTTG)” to “GTTGTTGCATGGACCGGTTTTCCCGGTAATCCGTATTTGGT (site GTTGTTACTAC)”, the “recombinant UMI read abundance (log10)” value falls from 2.25 to 0.375.

Compared with “GTTGTTGCATGGACCGGTTTTCCCGGTAATCCGTATTTGGT (site GTTGTTCCTAC)”, “GTTGTTGCATGGACCGGTTTTCCCGGTAATCCGTATTTGGT (site GTTGTTGCTAC)” is higher in “recombinant UMI read abundance (log10)” value: 0.00209 for the first, 1.83 for the second.

First: GTTGTTGCATGGACCGGTTTTCCCGGTAATCCGTATTTGGT (site GTTGTTTCTAC)
Second: GTTTAAGCATGGACCGGTTTTCCCGGTAATCCGTATTTGAC (site GTTTAAGCTGT)
The “recombinant UMI read abundance (log10)” value of the first is lower: 0 for the first, 2.24 for the second.

Compared with “GTTTAGGCATGGACCGGTTTTCCCGGTAATCCGTATTTGCA (site GTTTAGGCTTG)”, “GTTTAGTCATGGACCGGTTTTCCCGGTAATCCGTATTTGAT (site GTTTAGTCTAT)” is lower in “recombinant UMI read abundance (log10)” value: 2.03 for the first, 1.59 for the second.

Going from “GTTTCGACATGGACCGGTTTTCCCGGTAATCCGTATTTGTC (site GTTTCGACTGA)” to “GTTTGAGCATGGACCGGTTTTCCCGGTAATCCGTATTTGCA (site GTTAGAGCTTG)”, the “recombinant UMI read abundance (log10)” value rises from 0.157 to 1.32.

Compared with “GTTTGAGCATGGACCGGTTTTCCCGGTAATCCGTATTTGCA (site GTTCGAGCTTG)”, “GTTTGAGCATGGACCGGTTTTCCCGGTAATCCGTATTTGCA (site GTTGGAGCTTG)” is lower in “recombinant UMI read abundance (log10)” value: 1.89 for the first, 1.55 for the second.

Compared with “GTTTGAGCATGGACCGGTTTTCCCGGTAATCCGTATTTGCA (site GTTTGAGCTTG)”, “GTTTGCACATGGACCGGTTTTCCCGGTAATCCGTATTTGTA (site GTATGCACTTA)” is lower in “recombinant UMI read abundance (log10)” value: 2.07 for the first, 0.00807 for the second.

First: GTTTGCACATGGACCGGTTTTCCCGGTAATCCGTATTTGTA (site GTCTGCACTTA)
Second: GTTTGCACATGGACCGGTTTTCCCGGTAATCCGTATTTGTA (site GTGTGCACTTA)
The “recombinant UMI read abundance (log10)” value of the first is higher: 0.253 for the first, 0.0346 for the second.

Compared with “GTTTGCACATGGACCGGTTTTCCCGGTAATCCGTATTTGTA (site GTTTGCACTTA)”, “GTTTGGACATGGACCGGTTTTCCCGGTAATCCGTATTTGAC (site GATTGGACTGT)” is lower in “recombinant UMI read abundance (log10)” value: 0.721 for the first, 0 for the second.

Going from “GTTTGGACATGGACCGGTTTTCCCGGTAATCCGTATTTGAC (site GCTTGGACTGT)” to “GTTTGGACATGGACCGGTTTTCCCGGTAATCCGTATTTGAC (site GGTTGGACTGT)”, the “recombinant UMI read abundance (log10)” value falls from 1 to 0.

First: GTTTGGACATGGACCGGTTTTCCCGGTAATCCGTATTTGAC (site GTTTGGACTGT)
Second: TAAAGCCCATGGACCGGTTTTCCCGGTAATCCGTATTTGTA (site TAAAGACCTTA)
The “recombinant UMI read abundance (log10)” value of the first is higher: 1.91 for the first, 0.00168 for the second.

Going from “TAAAGCCCATGGACCGGTTTTCCCGGTAATCCGTATTTGTA (site TAAAGCCCTTA)” to “TAAAGCCCATGGACCGGTTTTCCCGGTAATCCGTATTTGTA (site TAAAGGCCTTA)”, the “recombinant UMI read abundance (log10)” value falls from 1.58 to 0.00691.

First: TAAAGCCCATGGACCGGTTTTCCCGGTAATCCGTATTTGTA (site TAAAGTCCTTA)
Second: TAAAGGGCATGGACCGGTTTTCCCGGTAATCCGTATTTGTG (site TAAAGGGCTCA)
The “recombinant UMI read abundance (log10)” value of the first is lower: 0.0272 for the first, 1.23 for the second.

Going from “TAAAGTACATGGACCGGTTTTCCCGGTAATCCGTATTTGTA (site TAAAGTACTTA)” to “TAAAGTACATGGACCGGTTTTCCCGGTAATCCGTATTTGTA (site TAAAGTCCTTA)”, the “recombinant UMI read abundance (log10)” value falls from 1.41 to 0.00305.

Going from “TAAAGTACATGGACCGGTTTTCCCGGTAATCCGTATTTGTA (site TAAAGTGCTTA)” to “TAAAGTACATGGACCGGTTTTCCCGGTAATCCGTATTTGTA (site TAAAGTTCTTA)”, the “recombinant UMI read abundance (log10)” value falls from 0.204 to 0.

“TAAAGTCCATGGACCGGTTTTCCCGGTAATCCGTATTTGAA (site TAAAGTCCTTA)” and “TAAAGTCCATGGACCGGTTTTCCCGGTAATCCGTATTTGAA (site TAAAGTCCTTC)” are within 0.2 log units of each other in “recombinant UMI read abundance (log10)” value: 0.00424 for the first, 0.144 for the second.

First: TAAAGTCCATGGACCGGTTTTCCCGGTAATCCGTATTTGAA (site TAAAGTCCTTG)
Second: TAAAGTCCATGGACCGGTTTTCCCGGTAATCCGTATTTGAA (site TAAAGTCCTTT)
The “recombinant UMI read abundance (log10)” value of the first is lower: 0 for the first, 0.775 for the second.

“TAACCCACATGGACCGGTTTTCCCGGTAATCCGTATTTGTG (site TAACCCACTCA)” and “TAACCTTCATGGACCGGTTTTCCCGGTAATCCGTATTTGGT (site TAACCTTCTAC)” are within 0.2 log units of each other in “recombinant UMI read abundance (log10)” value: 0.0264 for the first, 0.00557 for the second.

Compared with “TAACCTTCATGGACCGGTTTTCCCGGTAATCCGTATTTGGT (site TACCCTTCTAC)”, “TAACCTTCATGGACCGGTTTTCCCGGTAATCCGTATTTGGT (site TAGCCTTCTAC)” is higher in “recombinant UMI read abundance (log10)” value: 0.00501 for the first, 0.244 for the second.

“TAACCTTCATGGACCGGTTTTCCCGGTAATCCGTATTTGGT (site TATCCTTCTAC)” and “TAACTAGCATGGACCGGTTTTCCCGGTAATCCGTATTTGCG (site TAACTAGCTCG)” are the same in “recombinant UMI read abundance (log10)” value: 0 for the first, 0 for the second.

“TAACTCCCATGGACCGGTTTTCCCGGTAATCCGTATTTGGC (site TAACTCCCTGC)” and “TAACTTCCATGGACCGGTTTTCCCGGTAATCCGTATTTGCA (site TAACTTCCTTG)” are within 0.2 log units of each other in “recombinant UMI read abundance (log10)” value: 0.847 for the first, 0.949 for the second.

First: TAAGAAACATGGACCGGTTTTCCCGGTAATCCGTATTTGCT (site TAAGAAACTAG)
Second: TAAGACCCATGGACCGGTTTTCCCGGTAATCCGTATTTGTT (site TAAGACCCTAA)
The “recombinant UMI read abundance (log10)” value of the first is higher: 2.12 for the first, 0.806 for the second.

First: TAAGCAGCATGGACCGGTTTTCCCGGTAATCCGTATTTGCT (site AAAGCAGCTAG)
Second: TAAGCAGCATGGACCGGTTTTCCCGGTAATCCGTATTTGCT (site CAAGCAGCTAG)
The “recombinant UMI read abundance (log10)” value of the first is lower: 0.00963 for the first, 0.371 for the second.

Compared with “TAAGCAGCATGGACCGGTTTTCCCGGTAATCCGTATTTGCT (site GAAGCAGCTAG)”, “TAAGCAGCATGGACCGGTTTTCCCGGTAATCCGTATTTGCT (site TAAGCAGCTAG)” is higher in “recombinant UMI read abundance (log10)” value: 0.00441 for the first, 2.32 for the second.

Going from “TAAGGTCCATGGACCGGTTTTCCCGGTAATCCGTATTTGTA (site TAAAGTCCTTA)” to “TAAGGTCCATGGACCGGTTTTCCCGGTAATCCGTATTTGTA (site TAACGTCCTTA)”, the “recombinant UMI read abundance (log10)” value falls from 0.294 to 0.0087.

In the case of “TAAGGTCCATGGACCGGTTTTCCCGGTAATCCGTATTTGTA (site TAAGGTCCTTA)”, the “recombinant UMI read abundance (log10)” value is reported as 2.08.
